Results on nine molecules are retold here after patent publication EP4772510A2, “BENZAZEPINONE COMPOUND AND USE THEREOF” (HANGZHOU BIO-SINCERITY PHARMA-TECHCO., LTD., priority 2023, dated 2025).

Data set [1] in a line: Pharmacokinetic experiment in SD rats. Conditions: p.o, 5 mg/kg vs i.v, 0.5 mg/kg.
Protocol: (§1) Example 59: Pharmacokinetic Experiment of Compounds in SD Rats
(§2) SD rats, male, 6-8 weeks old, purchased from Zhejiang Vital River Laboratory Animal Technology Co., Ltd., production license No.: SCXK (Zhejiang) 2019-0001. The animals were maintained in an SPF-grade animal room of Hangzhou Bio-Sincerity Pharma-Tech Co., Ltd., with the experimental animal use license No. of SYXK (Zhejiang) 2021-0014. The animals were used after being acclimatized for at least one week. All experiments were performed in strict compliance with the regulations on experimental animals.
(§3) Four hours after administration, food was provided.
(§4) After administration to SD rats, about 300 µL of blood was collected from the orbit of each animal and anticoagulated with EDTA-Na2. […] The collected blood was placed in an ice bath and centrifuged within 1 h to separate plasma (centrifugation conditions: 2000× g, 10 min, 4 °C). 50 µL of plasma sample was taken, subjected to protein precipitation, and then assayed by UHPLC-MS. The assay data were analyzed and processed using WinNonLin8.1 pharmacokinetic software to obtain pharmacokinetic parameters.
In the next data set the test system is HT-29 cells. Kind of data set: Inhibition of TNF-α-induced necroptosis of HT-29 cells (SRB method). The class given is cell-based, human. Conditions: 18 h. A digest of the protocol: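 HT-29 cells (3 × 10^4/well, 24 h) were treated 18 h with compound (8 three-fold dilutions, 1000.00-0.46 nM, duplicate) plus TNF-α 20 ng/mL, BV6 2 µM and Z-VAD-FMK 20 µM final, at 37 °C. Viability was read by SRB absorbance; EC50 values were fitted.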
On the technique in general: In SRB staining, fixed cells bind dye roughly in proportion to their protein.

The next data set in a line: in vivo. Conditions: rat.
The mark [2] stands for this setting: Homo sapiens, HT-29, TNF-α 20 ng/mL + BV6 2 µM + Z-VAD-FMK 20 µM.
[3] abbreviates: male, SD, plasma, intravenous, 0.5 mg/kg.
The mark [4] stands for this setting: male, SD, plasma, oral, 5 mg/kg.
Where [5] appears, read: TNF-α 20 ng/mL + BV6 2 µM + Z-VAD-FMK 20 µM.

Protocol for in vivo: as §1, §2, §3, §4

As a reminder, the EC50 is the concentration needed to bring the measured effect to its halfway point. For orientation: AUC(0-t) means exposure summed from dosing to a finite time, without extrapolation to infinity. A higher AUC(0-t) goes with high exposure. The Cmax is the maximum level reached in the sampled fluid or tissue. In general, clearance refers to the rate of elimination divided by the concentration. In general, half-life refers to how long it takes for the measured level to halve. The term CL/F denotes clearance divided by bioavailability, as obtained after extravascular dosing. As to `CN1C(=O)[C@@H](NC(=O)c2nnc(Cc3ccccc3)[nH]2)COc2ccccc21` [GSK2982772, (S)-5-benzyl-N-(5-methyl-4-oxo-2,3,4,5-tetrahydrobenzo[b][1,4]oxazepin-3-yl)-4H-1,2,4-triazole-3-carboxamide, reference compound], in data set [1], the “Fabs (%)” value was 39.13 ± 11.8%. For the same molecule, the EC50 with HT-29 cells (setting [2]) is 5 to 10 nM. Also, in the data set “in vivo” (setting [3]), the AUC(0-t) is 5560 ng·h/mL, the highest level (Cmax) was 4320 ng/mL, the clearance came to 1.5 mL/min/kg and the half-life is 3.28 h. Moreover, in the data set “in vivo” (setting [4]), the AUC(0-t) turned out to be 21700 ± 6530 ng·h/mL, the CL/F stood at 4.03 ± 1.05 mL/min/kg, the peak level (Cmax) was 5820 ± 1210 ng/mL and the half-life is 3.06 ± 0.41 h.
With `Cn1cc(C#Cc2cc3c4c(c2)CCN4C(=O)C(NC(=O)c2ncn(Cc4c(F)cccc4F)n2)CC3)cn1` (stereo not drawn) [III-1, 1-(2,6-difluorobenzyl)-N-(9-((1-methyl-1H-pyrazol-4-yl)ethynyl)-4-oxo-1,2,3,4,6,7-hexahydroazepino[3,2,1-hi]indol-3-yl)-1H-1,2,4-triazole-3-carboxamide], the “Fabs (%)” value in data set [1] stood at 111.92 ± 11.87%. In addition, in the data set on HT-29 cells (setting [2]), the EC50 is below 5 nM. In “in vivo” (in vivo, iv, 0.5 mg/kg), this molecule showed an AUC(0-t) of 1980 ± 204 ng·h/mL, a Cmax of 1430 ± 181 ng/mL, a clearance of 5.54 ± 2.45 mL/min/kg and a half-life of 2.38 ± 1.76 h. In the data set “in vivo” (in vivo, po, 5 mg/kg), this molecule gave an AUC(0-t) of 22600 ± 2370 ng·h/mL, a CL/F of 3.7 ± 0.39 mL/min/kg, a Cmax of 4100 ± 520 ng/mL and a half-life of 2.94 ± 0.16 h.
Regarding `Cn1cc(C#Cc2cc3c4c(c2)CCN4C(=O)C(NC(=O)c2ncn(Cc4cc(F)ccc4F)n2)CC3)cn1` (stereo not drawn) [III-10, 1-(2,5-difluorobenzyl)-N-(9-((1-methyl-1H-pyrazol-4-yl)ethynyl)-4-oxo-1,2,3,4,6,7-hexahydroazepino[3,2,1-hi]indol-3-yl)-1H-1,2,4-triazole-3-carboxamide], the “Fabs (%)” value in data set [1] is listed as 51.37 ± 3.03%. For the same molecule, in the data set with HT-29 cells (setting [2]), the EC50 was below 5 nM. In “in vivo” (in vivo, iv, 0.5 mg/kg), the AUC(0-t) was 5340 ± 1330 ng·h/mL, the Cmax is 1940 ± 319 ng/mL, the clearance turned out to be 1.6 ± 0.39 mL/min/kg and the half-life was 2.37 ± 0.64 h. In the data set “in vivo” (in vivo, po, 5 mg/kg), this molecule showed an AUC(0-t) of 27700 ± 1560 ng·h/mL, a CL/F of 3.01 ± 0.18 mL/min/kg, a Cmax of 4660 ± 132 ng/mL and a half-life of 2.57 ± 0.69 h.
On to `Cn1cc(C#Cc2cc3c4c(c2)CCN4C(=O)C(NC(=O)c2ncn(Cc4ccc(F)c(F)c4)n2)CC3)cn1` (stereo not drawn) [III-12, 1-(3,4-difluorobenzyl)-N-(9-((1-methyl-1H-pyrazol-4-yl)ethynyl)-4-oxo-1,2,3,4,6,7-hexahydroazepino[3,2,1-hi]indol-3-yl)-1H-1,2,4-triazole-3-carboxamide], for which the “Fabs (%)” value in data set [1] came out at 64.54 ± 10.10%. The EC50 in the data set with HT-29 cells (setting [2]) was 10 to 100 nM. In “in vivo” (in vivo, iv, 0.5 mg/kg), this molecule had an AUC(0-t) of 8830 ± 1290 ng·h/mL, a Cmax of 1300 ± 23.2 ng/mL, a clearance of 0.91 ± 0.18 mL/min/kg and a half-life of 5.78 ± 2.23 h. For the same molecule, in “in vivo” (in vivo, po, 5 mg/kg), the AUC(0-t) came to 60400 ± 9300 ng·h/mL, the apparent clearance (CL/F) stood at 1.39 ± 0.2 mL/min/kg, the Cmax was found to be 7330 ± 781 ng/mL and the half-life is 3.19 ± 0.52 h.
In the case of `O=C(NC1CCc2cc(C#Cc3cnn(C(F)F)c3)cc3c2N(CC3)C1=O)c1ncn(Cc2c(F)cccc2F)n1` (stereo not drawn) [III-17, 1-(2,6-difluorobenzyl)-N-(9-((1-(difluoromethyl)-1H-pyrazol-4-yl)ethynyl)-4-oxo-1,2,3,4,6,7-hexahydroazepino[3,2,1-hi]indol-3-yl)-1H-1,2,4-triazole-3-carboxamide], the EC50 in the data set with HT-29 cells (setting [5]) was below 5 nM.
As for `O=C(NC1CCc2cc(C#Cc3cnn(C(F)F)c3)cc3c2N(CC3)C1=O)c1ncn(Cc2cc(F)ccc2F)n1` (stereo not drawn) [III-19, 1-(2,5-difluorobenzyl)-N-(9-((1-(difluoromethyl)-1H-pyrazol-4-yl)ethynyl)-4-oxo-1,2,3,4,6,7-hexahydroazepino[3,2,1-hi]indol-3-yl)-1H-1,2,4-triazole-3-carboxamide], the “Fabs (%)” value in data set [1] worked out at 121.33 ± 40.32%. Besides, the EC50 with HT-29 cells (setting [2]) was below 5 nM. In the data set “in vivo” (in vivo, iv, 0.5 mg/kg), this molecule gave an AUC(0-t) of 703 ± 191 ng·h/mL, a Cmax of 662 ± 110 ng/mL, a clearance of 12.2 ± 3.04 mL/min/kg and a half-life of 1.37 ± 0.2 h. In “in vivo” (in vivo, po, 5 mg/kg), this molecule gave an AUC(0-t) of 8130 ± 3570 ng·h/mL, a CL/F of 10.3 ± 3.12 mL/min/kg, a Cmax of 1480 ± 545 ng/mL and a half-life of 2.96 ± 0.69 h.
On to `O=C(NC1CCc2cc(C#Cc3cnn(C(F)F)c3)cc3c2N(CC3)C1=O)c1ncn(Cc2ccccc2F)n1` (stereo not drawn) [III-21, N-(9-((1-(difluoromethyl)-1H-pyrazol-4-yl)ethynyl)-4-oxo-1,2,3,4,6,7-hexahydroazepino[3,2,1-hi]indol-3-yl)-1-(2-fluorobenzyl)-1H-1,2,4-triazole-3-carboxamide], for which the “Fabs (%)” value in data set [1] turned out to be 97.15 ± 40.17%. Also, in the data set on HT-29 cells (setting [2]), the half-maximal effective concentration (EC50) was below 5 nM. In the data set “in vivo” (in vivo, iv, 0.5 mg/kg), this molecule gave an AUC(0-t) of 651 ± 66.4 ng·h/mL, a Cmax of 619 ± 65.8 ng/mL, a clearance of 12.8 ± 1.27 mL/min/kg and a half-life of 1.19 ± 0.1 h. For the same molecule, in “in vivo” (in vivo, po, 5 mg/kg), the exposure AUC(0-t) turned out to be 6250 ± 2790 ng·h/mL, the CL/F was found to be 14.9 ± 6.92 mL/min/kg, the highest level (Cmax) was 1280 ± 509 ng/mL and the half-life is 2.66 ± 0.69 h.
With `C#Cc1cc2c3c(c1)CCN3C(=O)C(NC(=O)c1ncn(Cc3c(F)cccc3F)n1)CC2` (stereo not drawn) [III-26, 1-(2,6-difluorobenzyl)-N-(9-ethynyl-4-oxo-1,2,3,4,6,7-hexahydroazepino[3,2,1-hi]indol-3-yl)-1H-1,2,4-triazole-3-carboxamide], the “Fabs (%)” value in data set [1] is 51.2 ± 3.29%. The EC50 in the data set with HT-29 cells (setting [2]) was below 5 nM. In the data set “in vivo” (in vivo, iv, 0.5 mg/kg), the AUC(0-t) was determined as 550 ± 34.5 ng·h/mL, the Cmax is 896 ± 158 ng/mL, the clearance is 15.2 ± 0.98 mL/min/kg and the half-life is 0.44 ± 0.03 h. In the data set “in vivo” (in vivo, po, 5 mg/kg), this molecule showed an AUC(0-t) of 2810 ± 177 ng·h/mL, a CL/F of 29.6 ± 1.95 mL/min/kg, a Cmax of 1370 ± 389 ng/mL and a half-life of 3.98 ± 2.49 h.
Turning to “N-(9-((1-(difluoromethyl)-1H-pyrazol-4-yl)ethynyl)-4-oxo-1,2,3,4,6,7-hexahydroazepino[3,2,1-hi]indol-3-yl)-1-(4-methylbenzyl)-1H-1,2,4-triazole-3-carboxamide [III-25]”, the EC50 with HT-29 cells (setting [5]) was in the range of 5 to 10 nM.
